Consider 1 compound from ChEMBL document CHEMBL3639024, “Azinone-substituted azapolycycle MCH-1 antagonists, methods of making, and use thereof” (2013).

The assay addresses Melanin-concentrating hormone receptor 1 (Homo sapiens, UniProt Q99705). The assay is described as follows: Binding Assay: Evaluation of the affinity of compounds for the human MCH-1 receptor was accomplished using 4-(3,4,5-tritritiumbenzyloxy)-1-(1-(2-(pyrrolidin-1-yl)ethyl)-1H-indazol-5-yl)pyridin-2(1H)-one and membranes prepared from stable CHO-K1 cells expressing the human MCH1 receptor obtained from Euroscreen (Batch 1138). It is filed as cell membranes.

Chain of Melanin-concentrating hormone receptor 1 (Q99705 whole entry): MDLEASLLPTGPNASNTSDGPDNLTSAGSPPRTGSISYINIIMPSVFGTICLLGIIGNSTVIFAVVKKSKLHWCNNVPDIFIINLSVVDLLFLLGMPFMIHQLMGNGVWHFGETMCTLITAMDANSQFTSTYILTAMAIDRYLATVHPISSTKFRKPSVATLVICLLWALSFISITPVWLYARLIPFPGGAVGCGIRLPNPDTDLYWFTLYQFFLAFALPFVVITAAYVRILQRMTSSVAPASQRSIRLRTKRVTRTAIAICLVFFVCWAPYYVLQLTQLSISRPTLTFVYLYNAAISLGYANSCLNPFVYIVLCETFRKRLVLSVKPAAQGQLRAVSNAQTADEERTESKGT

A word on the Ki: it is the dissociation constant of the complex between target and ligand, obtained from inhibition or displacement. Low readings indicate a stronger hold on the target, high ones a looser hold on the target. For `Cn1c2c(c3ccc(-n4ccc(OCc5ccc(F)cn5)cc4=O)cc31)CN1CCCC1C2` (stereo unspecified), affinity was put at a Ki of 9.7 nM. This counts as single-digit nanomolar.
